# From patent US6815448B2, “Azaheterocyclylmethyl derivatives of 7,8-dihydro-1,6,9-trioxa-3-aza-cyclopenta[a]naphthalene as 5-HT1A antagonists” (Wyeth, priority 2001, dated 2004)
# Structures can show the parent of a compound that is named as a salt. Where two headings read alike, the source gives them in different places.
# How the values were obtained:
# [1] = target: T1, cloned human 5-HT1A receptors (Homo sapiens, UniProt P08908); assay: 35S-GTPγS binding assay, reversal of the standard agonist 8-OH-DPAT; type: biochemical; settings: for 5-HT1A Function Imax (maximum inhibitory effect): value in parentheses
# T1 construct: expressed in transfected cells
# T1 sequence (P08908 1-422): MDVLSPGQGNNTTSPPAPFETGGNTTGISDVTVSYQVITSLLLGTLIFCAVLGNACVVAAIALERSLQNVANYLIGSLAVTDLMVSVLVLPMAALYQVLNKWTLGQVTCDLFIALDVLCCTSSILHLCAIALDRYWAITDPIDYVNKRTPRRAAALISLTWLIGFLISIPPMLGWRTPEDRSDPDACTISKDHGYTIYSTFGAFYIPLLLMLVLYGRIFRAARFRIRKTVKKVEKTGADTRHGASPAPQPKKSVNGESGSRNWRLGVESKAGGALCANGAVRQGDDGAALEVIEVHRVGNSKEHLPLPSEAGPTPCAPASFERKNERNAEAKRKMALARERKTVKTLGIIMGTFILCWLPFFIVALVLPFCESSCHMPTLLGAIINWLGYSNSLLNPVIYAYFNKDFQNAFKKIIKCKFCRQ
# Description: Antagonist activity at 5-HT1A receptors was established by using a ^35S-GTPγS binding assay similar to that used by Lazareno and Birdsall (Br. J. Pharmacol. 109: 1120, 1993), in which the test compound's ability to affect the binding of ^35S-GTPγS to membranes containing cloned human 5-HT1A receptors was determined. Agonists produce an increase in binding whereas antagonists produce no increase but rather reverse the effects of the standard agonist 8-OH-DPAT. The test compound's maximum inhibitory effect is represented as the Imax, while its potency is defined by the IC50.
# human 5-HT1A receptors = target: T2, human 5-HT1A receptors (Homo sapiens, UniProt P08908); assay: [3H] 8-OH-DPAT displacement from 5-HT1A receptor; type: binding; settings: CHO cells stably transfected with human 5-HT1A receptors, read-out: 5-HT1A Receptor Affinity KI
# T2 construct: expressed in transfected cells; host or cells: CHO cells
# T2 sequence (P08908 1-422): T1 sequence (P08908 1-422)
# Description: High affinity for the serotonin 5-HT1A receptor was established by testing the claimed compound's ability to displace [^3H] 8-OH-DPAT (dipropylaminotetralin) from the 5-HT1A serotonin receptor following a modification of the procedure of Hall et al. J. Neurochem. 44, 1685 (1985) which utilizes CHO cells stably transfected with human 5-HT1A receptors.
# [2] = 35S-GTPγS binding, membranes with cloned human 5-HT1A receptors, antagonist potency, read-out: 5-HT1A Function IC50
Structure (SMILES),melting point,"IC50 [1, 2]",5-HT1A Function Imax (maximum inhibitory effect) ([1]; 35S-GTPγS binding),Ki (human 5-HT1A receptors),IC50 [1]
"Cc1nc2ccc3c(c2o1)OC(CN1CCC2(CC1)C(=O)NCN2c1ccccc1)CO3 (centres unmarked) (as salt: fumarate) [Example 1, 8-(2-Methyl-7,8-dihydro-1,6,9-trioxa-3-aza-cyclopenta[a]naphthalen-8-ylmethyl)-1-phenyl-1,3,8triazaspiro[4.5]decan-4-one]",240 °C,,,,
"Cc1nc2ccc3c(c2o1)OC(CN1CCC(C(=O)c2ccc(F)cc2)CC1)CO3 (centres unmarked) (as salt: fumarate) [Example 4, (4-Fluorophenyl) (1-[2-methyl-7,8-dihydro-1,6,9-trioxa-3-aza-cyclopenta[a]naphthalen-8-ylmethyl]-4-piperidinyl)methanone]",229 to 230 °C,,,,
Cc1nc2ccc3c(c2o1)O[C@@H](CN1CC=C(c2cccc(C(F)(F)F)c2)CC1)CO3 (as salt: fumarate) [Example 5],170 to 173 °C,,,,
"Cc1nc2ccc3c(c2o1)OC(CN1CCCCC1)CO3 (centres unmarked) (as salt: fumarate) [Example 6, 2-Methyl-8-(piperidin-1-ylmethyl)-7,8-dihydro-1,6,9-trioxa-3-aza-cyclopenta[a]naphthalene]",109 to 112 °C,,,,
"Cc1nc2ccc3c(c2o1)OC(CN1CCC2(CC1)C(=O)NCN2c1ccccc1)CO3 (centres unmarked) [Example 1, 8-(2-Methyl-7,8-dihydro-1,6,9-trioxa-3-aza-cyclopenta[a]naphthalen-8-ylmethyl)-1-phenyl-1,3,8triazaspiro[4.5]decan-4-one]",,1050 nM,60.0,0.93 nM,
"Cc1nc2ccc3c(c2o1)OC(CN1CCC(n2c(=O)[nH]c4ccccc42)CC1)CO3 (centres unmarked) [Example 2, 1-[1-(2-Methyl-7,8-dihydro-1,6,9-trioxa-3-aza-cyclopenta[a]naphthalen-8-ylmethyl)-piperidin-4-yl]-1,3-dihydro-2H-benzimidazol-2-one]",218 to 220 °C,,42.0,1 nM,2.7 nM
"Cc1nc2ccc3c(c2o1)OC(CN1CCC(O)(c2cccc(C(F)(F)F)c2)CC1)CO3 (centres unmarked) [Example 3, 1-(2-Methyl-7,8-dihydro-1,6,9-trioxa-3-aza-cyclopenta[a]naphthalen-8-ylmethyl)-4-[3-(trifluoromethyl)phenyl]-4-piperidinol]",148 to 151 °C,,47.0 (47.0),6.52 nM,47 nM
"Cc1nc2ccc3c(c2o1)OC(CN1CCC(C(=O)c2ccc(F)cc2)CC1)CO3 (centres unmarked) [Example 4, (4-Fluorophenyl) (1-[2-methyl-7,8-dihydro-1,6,9-trioxa-3-aza-cyclopenta[a]naphthalen-8-ylmethyl]-4-piperidinyl)methanone]",,,,202 nM,
Cc1nc2ccc3c(c2o1)O[C@@H](CN1CC=C(c2cccc(C(F)(F)F)c2)CC1)CO3 [Example 5],,798 nM,97.0,39.4 nM,
"Cc1nc2ccc3c(c2o1)OC(CN1CCCCC1)CO3 (centres unmarked) [Example 6, 2-Methyl-8-(piperidin-1-ylmethyl)-7,8-dihydro-1,6,9-trioxa-3-aza-cyclopenta[a]naphthalene]",,,,173 nM,
